Reference: US20100028312A1, “Stably transformed bone marrow-derived cells and uses thereof” (Caritas St. Elizabeth Medical Center of Boston Inc, priority 2005, published 2010)

Assays:
[1] = tested on: EPC; assay: β-galactosidase activity in EPC transduced with type 2 AAV, with or without genistein; assay type: cell-based, rats
Method: (§1) EPC Culture and Expansion. Peripheral blood (about 1 ml) was obtained from the hearts of rats and mononuclear cells were isolated by density gradient centrifugation and cultured for 5 days. EPC were expanded ex vivo as described above.
(§2) Transduction of EPC. EPC cultures were infected with type 2 AAV-lacZ (also referred to herein as AAV-lacZ(+)) (control) vectors or AAV-IGF-1 vectors, prepared as described above, using approximately 3000 particles/cell. Some cultures were treated for about 1 hour with genistein, a specific inhibitor of cellular protein tyrosine kinases, (2-40 μM, preferably about 20 μM). Control vectors used in the genistein experiments also included AAV vector without lacZ, designated AAVlacZ(−).
AAV-IGF-1 mRNA expression in EPCs was determined by RT-PCR assay using primers specific for human IGF-1 sequences. The primer sequences used in these studies are as shown:
To determine whether efficiency of rAAV transduction of cultured EPC can be enhanced by inhibiting protein tyrosine kinases in these cells, some EPC cultures were pretreated with genestein prior to infection with rAAV, as described above. Referring to FIG. 5, in cultures infected with AAVlacZ(−) control vector, β-gal activity was negligible. In cultures infected with AAVlacZ(+) without or with pretreatment with 20 μM genistein, β-gal activity was 3.35 vs. 12.09, respectively. […]

[2] = tested on: EPC; assay: RT-PCR assay of AAV-IGF-1 mRNA expression in transduced EPC, with or without genistein; assay type: cell-based, rats
Method: as §1, §2
One week after infection, the cells were analyzed for β-galactosidase activity. AAV-IGF-1 mRNA expression in EPCs was determined by RT-PCR assay using primers specific for human IGF-1 sequences. The primer sequences used in these studies are as shown: […]

[3] = tested on: BM cells; settings: 100 ng intraperitoneal for 3 consecutive days; 2 months after BMT; versus control BMT
Method: To examine the effect of VEGF on BM cell mobilization, we injected the mice with 100 ng VEGF-C intaperitoneally for 3 days.
Freshly isolated BM cells or PB cells were subjected to FluoReporter lacZ Flow Cytometry Kit (Molecular Probes, OR) or stained with acetylated low-density lipoprotein (LDL) labeled with 1′-dioctadecyl1-1,3,3,3′-tetramethyl-indocarbocyanine; Di-I (Biomedical Technologies Inc, MA) as described previously [13]. Analysis was performed on a FACStar flow cytometer (Becton Dickinson) and Cell Quest Software counting 10,000 events per sample.
Accordingly, we treated recipient mice with VEGF protein and analyzed the kinetics of mobilization of BM cells by FACS analysis.
The means±S.E. from 9 independent experiments are presented. *, p<0.01, **, p<0.05 versus control BMT (FIG. 2A).

Row | Compound | increase of lacZ activity by genistein ([1]; 20 μM genistein versus no genistein, AAVlacZ(+)) | β-gal activity ([1]; 14 days after transduction, AAVlacZ(+)-infected EPC pretreated with 20 μM genistein) | AAV-mediated IGF-1 expression (mRNA, RT-PCR) ([2]; AAV-IGF-1 transduced EPC following treatment with genistein) [units] | increase of IGF-1 expression from AAV by genistein ([2]; genistein versus no genistein) | β-gal expression in both PB and BM of recipient mice [3]
1 | O=c1c(-c2ccc(O)cc2)coc2cc(O)cc(O)c12 [genistein] | approximately four-fold | 12.09 | 206.1 | about seven-fold | –
2 | VEGF | – | – | – | – | significantly increased
